In general, IC50 refers to the concentration at which inhibition is half-maximal.

Like-named read-outs stand apart in the source and are kept apart here.

This note sets out measurements from patent US10961200B2, “Small molecule inhibitors of lactate dehydrogenase and methods of use thereof” (THE UNITED STATES OF AMERICA, AS REPRESENTED BY THE …, priority 2014, dated 2021).

One test concerns the target Human LDHA (Homo sapiens (Human), UniProt P00338). The test is described as follows: human LDHA primary biochemical assay (resazurin/diaphorase coupled, fluorescence). From the text:
Test compounds were placed in a Greiner Bio-One (Monroe, N.C.) 1536-well black solid bottom assay plate. 200 millimolar (mM) Tris HCl, pH 7.4, 100 micromolar […] EDTA and 0.01% TWEEN-20™, final concentration, was used as the assay buffer. The LDHA reagent was 2 nanomolar (nM) Human LDHA (Meridian Life Science, Inc., Memphis, Tenn.), final concentration, in assay buffer.
(In general: Alamar Blue is a resazurin reagent that responds to reducing activity.)

The test system of the next test is MiaPaCa2 cells. The test is described as follows: cell-based HT lactate assay, colorimetric/fluorometric detection (inhibition of lactate production). As to conditions: class symbols, 0 to 3 pluses. On the procedure: Cell-based HT Lactate assay is a miniaturized Biovision Lactate Colorimetric/Fluorometric Assay Kit (Cat #K607-100). The assay is roughly a 3.5 hour assay run in a 1536 plate format. Cell number optimization should be run for each cell line to achieve an optimal number in which lactate production equals roughly 90% of the standard curve range. Cell number per well optimization has been performed with the following cell lines: MiaPaCa2—500 cells/well, SNU398—500 cells/well, and P493—500 cells/well.
The lactate activity in Table 8 is represented by 0 to 3 pluses as follows: +++<1 μM; ++1-10 μM; +10-57 μM; and −>57 μM.

Setting [1] is: LDHA inhibitory activity, activity level based on IC50 (Table 7).
[2] abbreviates: read-out: Inhibitory activity IC50.
Where [3] appears, read: LDHA inhibitory activity, assay of Example 1, activity level classes.

`NS(=O)(=O)c1ccc(Cc2c(-c3cccc(Oc4cccc(F)c4)c3)nn(-c3nc(C(=O)O)cs3)c2CC2CC2)cc1` [Compound 526, 2-(5-(cyclopropylmethyl)-3-(3-(3-fluorophenoxy)phenyl)-4-(4-sulfamoylbenzyl)-1H-pyrazol-1-yl)thiazole-4-carboxylic Acid]: the half-inhibitory concentration (IC50) against Human LDHA (setting [1]) lay in the range of 100 to 1000 nM; in the test with MiaPaCa2 cells (Homo sapiens, MIA PaCa-2) it was 10000 to 57000 nM.
As for `Cc1csc(-c2cc(-c3nn(-c4nc(C(=O)O)cs4)c(CC4CC4)c3Cc3ccc(S(N)(=O)=O)c(F)c3)ccc2F)c1` [Compound 223, 2-(5-(cyclopropylmethyl)-3-(4-fluoro-3-(4-methylthiophen-2-yl)phenyl)-4-(3-fluoro-4-sulfamoylbenzyl)-1H-pyrazol-1-yl)thiazole-4-carboxylic acid], the IC50 at Human LDHA (setting [2]) is under 100 nM; in the test with MiaPaCa2 cells (Homo sapiens, MIA PaCa-2), under 1000 nM.
`N[S+](=O)([O-])c1ccc(Cc2c(-c3ccc(F)c(C#CCN4CCCC4)c3)nn(-c3nc(C(=O)O)cs3)c2CC2CC2)cc1F` [Compound 417]: the figures for the IC50 at Human LDHA (setting [1]) and in the test with MiaPaCa2 cells were under 100 nM and 1000 to 10000 nM, respectively.
Regarding `N[S+](=O)([O-])c1ccc(Cc2c(-c3ccc(F)c(C4CCCCC4)c3)nn(-c3nc(C(=O)O)cs3)c2CC2CC2)cc1F` [Compound 374], the IC50 at Human LDHA (setting [1]) is under 100 nM; with MiaPaCa2 cells it was under 1000 nM.
`N[S+](=O)([O-])c1ccc(Cc2c(-c3ccc(F)c(CCCCC(F)(F)F)c3)nn(-c3nc(C(=O)O)cs3)c2CC2CC2)cc1F` [Compound 388]: the IC50 against Human LDHA (setting [1]) was under 100 nM; with MiaPaCa2 cells, 1000 to 10000 nM.
Regarding `Cc1noc(C)c1-c1cc(-c2nn(-c3nc(C(=O)O)cs3)c(CC3CC3)c2Cc2ccc(S(N)(=O)=O)c(F)c2)ccc1F` [Compound 219, 2-(5-(cyclopropylmethyl)-3-(3-(3,5-dimethylisoxazol-4-yl)-4-fluorophenyl)-4-(3-fluoro-4-sulfamoylbenzyl)-1H-pyrazol-1-yl)thiazole-4-carboxylic acid], the IC50 is under 100 nM at Human LDHA (setting [2]) and 1000 to 10000 nM in the test with MiaPaCa2 cells (Homo sapiens, MIA PaCa-2).
Regarding `NS(=O)(=O)c1ccc(Cc2c(-c3ccc(F)c(OCC4CC4(F)F)c3)nn(-c3nc(C(=O)O)cs3)c2CC2CC2)cc1F` (centres unmarked) [Compound 400], the values for the IC50 against Human LDHA (setting [1]) and in the test with MiaPaCa2 cells were under 100 nM and under 1000 nM, respectively.
Consider `NS(=O)(=O)c1ccc(Cc2c(-c3cccc(OCc4ccccc4)c3)nn(-c3nc(C(=O)O)cs3)c2C2CC2)cc1` [Compound 501, 2-(3-(3-(benzyloxy)phenyl)-5-cyclopropyl-4-(4-sulfamoylbenzyl)-1H-pyrazol-1-yl)thiazole-4-carboxylic acid], for which the IC50 is under 100 nM against Human LDHA (setting [1]) and 1000 to 10000 nM with MiaPaCa2 cells (Homo sapiens, MIA PaCa-2).
As to `N[S+](=O)([O-])c1ccc(Cc2c(CC3CC3)nn(-c3nc(C(=O)O)cs3)c2-c2ccc(C(O)(C3CC3)C(F)(F)F)cc2)cc1F` (centres unmarked) [Compound 399], the IC50 against Human LDHA (setting [1]) was 1000 to 57000 nM; in the test on MiaPaCa2 cells (Homo sapiens, MIA PaCa-2) it was over 57000 nM.
For `Cn1cc(-c2cc(-c3nn(-c4nc(C(=O)O)cs4)c(CC4CC4)c3Cc3ccc(S(N)(=O)=O)c(F)c3)ccc2F)cn1` [Compound 217, 2-(5-(cyclopropylmethyl)-3-(4-fluoro-3-(1-methyl-1H-pyrazol-4-yl)phenyl)-4-(3-fluoro-4-sulfamoylbenzyl)-1H-pyrazol-1-yl)thiazole-4-carboxylic acid], the IC50 was under 100 nM on Human LDHA (setting [2]) and 1000 to 10000 nM in the test with MiaPaCa2 cells (Homo sapiens, MIA PaCa-2).
Consider `NS(=O)(=O)c1ccc(Cc2c(-c3ccc(F)c(OCc4ccc(C(F)(F)F)o4)c3)nn(-c3nc(C(=O)O)cs3)c2CC2CC2)cc1F` [Compound 473, 2-(5-(cyclopropylmethyl)-3-(4-fluoro-3-((5-(trifluoromethyl)furan-2-yl)methoxy)phenyl)-4-(3-fluoro-4-sulfamoylbenzyl)-1H-pyrazol-1-yl)thiazole-4-carboxylic Acid], for which the IC50 at Human LDHA (setting [1]) is under 100 nM; in the test on MiaPaCa2 cells (Homo sapiens, MIA PaCa-2) it was under 1000 nM.
Consider `N[S+](=O)([O-])c1ccc(Cc2c(-c3ccc(F)c(C#CCC4CCCC4)c3)nn(-c3nc(C(=O)O)cs3)c2CC2CC2)cc1F` [Compound 411], for which the half-inhibitory concentration (IC50) was under 100 nM at Human LDHA (setting [1]) and under 1000 nM in the test with MiaPaCa2 cells.
The like results for `CC(C)(C)Cc1cc(-c2nn(-c3nc(C(=O)O)cs3)c(CC3CC3)c2Cc2ccc(S(N)(=O)=O)c(F)c2)ccc1F` [Compound 386] were, in that order, under 100 nM and under 1000 nM.
With `NS(=O)(=O)c1ccc(Cc2c(-c3ccc(F)c(-c4ccccc4)c3)nn(-c3nc(C(=O)O)cs3)c2CC2CC2)cc1` [Compound 257], the IC50 was under 100 nM at Human LDHA (setting [3]) and under 1000 nM in the test on MiaPaCa2 cells.
With `NS(=O)(=O)c1ccc(Cc2c(-c3ccc(F)c(C4=CCCC4)c3)nn(-c3nc(C(=O)O)cs3)c2CC2CC2)cc1F` [Compound 444], the values for the IC50 on Human LDHA (setting [1]) and in the test on MiaPaCa2 cells were under 100 nM and under 1000 nM, respectively.
In the case of `NS(=O)(=O)c1ccc(Cc2c(-c3ccc(F)c(Oc4cccc(F)c4)c3)nn(-c3nc(C(=O)O)cs3)c2CC2CC2)cc1F` [Compound 509, 2-(5-(cyclopropylmethyl)-3-(4-fluoro-3-(3-fluorophenoxy)phenyl)-4-(3-fluoro-4-sulfamoylbenzyl)-1H-pyrazol-1-yl)thiazole-4-carboxylic Acid], the IC50 was under 100 nM against Human LDHA (setting [1]) and under 1000 nM in the test with MiaPaCa2 cells (Homo sapiens, MIA PaCa-2).
As to `N[S+](=O)([O-])c1ccc(Cc2c(-c3cccc(S(F)(F)(F)(F)F)c3)nn(-c3nc(C(=O)O)cs3)c2CC2CC2)cc1F` [Compound 376], the IC50 is under 100 nM against Human LDHA (setting [1]) and under 1000 nM in the test with MiaPaCa2 cells.
Turning to `NS(=O)(=O)c1ccc(Cc2c(-c3cccc(Oc4ccc(C(F)(F)F)cc4)c3)nn(-c3nc(C(=O)O)cs3)c2CC2CC2)cc1` [Compound 481, 2-(5-(cyclopropylmethyl)-4-(4-sulfamoylbenzyl)-3-(3-(4-(trifluoromethyl)phenoxy)-phenyl)-1H-pyrazol-1-yl)thiazole-4-carboxylic Acid], the IC50 at Human LDHA (setting [1]) was under 100 nM; in the test with MiaPaCa2 cells (Homo sapiens, MIA PaCa-2) it was 1000 to 10000 nM.
For `CC(C)(C)C#Cc1cc(-c2nn(-c3nc(C(=O)O)cs3)c(CC3CC3)c2Cc2ccc(S(N)(=O)=O)c(F)c2)ccc1F` [Compound 402], the IC50 against Human LDHA (setting [1]) is under 100 nM; in the test on MiaPaCa2 cells, under 1000 nM.
Consider `N[S+](=O)([O-])c1ccc(Cc2c(-c3ccc(F)c(-c4ccc(F)cc4)c3)nn(-c3nc(C(=O)O)cs3)c2CC2CC2)cc1` [Compound 310], for which the results for the IC50 against Human LDHA (setting [3]) and in the test on MiaPaCa2 cells were under 100 nM and under 1000 nM, respectively.
Turning to `NS(=O)(=O)c1ccc(Cc2c(-c3ccc(F)c(C#Cc4cccs4)c3)nn(-c3nc(C(=O)O)cs3)c2CC2CC2)cc1F` [Compound 403], the IC50 against Human LDHA (setting [1]) was under 100 nM; in the test with MiaPaCa2 cells, under 1000 nM.
For `N[S+](=O)([O-])c1ccc(Cc2c(-c3ccc(F)c(C#CC4CC4)c3)nn(-c3nc(C(=O)O)cs3)c2CC2CC2)cc1` [Compound 433], the IC50 on Human LDHA (setting [1]) is under 100 nM; with MiaPaCa2 cells it was under 1000 nM.
Consider `NS(=O)(=O)c1ccc(Cc2c(-c3ccc(F)c(OCc4cccc(F)c4)c3)nn(-c3nc(C(=O)O)cs3)c2CC2CC2)cc1F` [Compound 528, 2-(5-(cyclopropylmethyl)-3-(4-fluoro-3-((3-fluorobenzyl)oxy)phenyl)-4-(3-fluoro-4-sulfamoylbenzyl)-1H-pyrazol-1-yl)thiazole-4-carboxylic Acid], for which the IC50 at Human LDHA (setting [1]) is under 100 nM; with MiaPaCa2 cells (Homo sapiens, MIA PaCa-2), under 1000 nM.
As to `NS(=O)(=O)c1ccc(Cc2c(-c3cccc(-c4cccc(F)c4)c3)nn(-c3nc(C(=O)O)cs3)c2CC2CC2)cc1F` [Compound 365], the results for the concentration for half-maximal inhibition (IC50) on Human LDHA (setting [1]) and in the test on MiaPaCa2 cells were under 100 nM and under 1000 nM, respectively.
As to `Cn1cc(-c2cc(-c3nn(-c4nc(C(=O)O)cs4)c(CC4CC4)c3Cc3ccc(S(N)(=O)=O)cc3F)ccc2F)cn1` [Compound 214, 2-(5-(cyclopropylmethyl)-3-(4-fluoro-3-(1-methyl-1H-pyrazol-4-yl)phenyl)-4-(2-fluoro-4-sulfamoylbenzyl)-1H-pyrazol-1-yl)thiazole-4-carboxylic acid], the IC50 on Human LDHA (setting [2]) is under 100 nM; in the test with MiaPaCa2 cells (Homo sapiens, MIA PaCa-2) it was 1000 to 10000 nM.
Regarding `CCOC(=O)c1csc(-n2nc(-c3cccc(-c4ccccc4)c3)c(Cc3ccc(S(N)(=O)=O)c(F)c3)c2CC2CC2)n1` [Compound 393], the IC50 against Human LDHA (setting [1]) and with MiaPaCa2 cells was over 57000 nM throughout.
Consider `CC(C)c1ccc(-c2cc(-c3nn(-c4nc(C(=O)O)cs4)c(CC4CC4)c3Cc3ccc([S+](N)(=O)[O-])cc3)ccc2F)cc1` [Compound 306], for which the results for the IC50 at Human LDHA (setting [3]) and in the test with MiaPaCa2 cells were under 100 nM and under 1000 nM, respectively.
Take `N[S+](=O)([O-])c1ccc(Cc2c(-c3ccc(F)c(C4=COCCC4)c3)nn(-c3nc(C(=O)O)cs3)c2CC2CC2)cc1F` [Compound 379]: the IC50 against Human LDHA (setting [1]) was under 100 nM; in the test on MiaPaCa2 cells, under 1000 nM.
With `C=C(C)C#Cc1cc(-c2nn(-c3nc(C(=O)O)cs3)c(CC3CC3)c2Cc2ccc(S(N)(=O)=O)c(F)c2)ccc1F` [Compound 264], the IC50 against Human LDHA (setting [3]) was under 100 nM; in the test with MiaPaCa2 cells, under 1000 nM.
As for `N[S+](=O)([O-])c1ccc(Cc2c(-c3ccc(F)c(C4CCOCC4)c3)nn(-c3nc(C(=O)O)cs3)c2CC2CC2)cc1F` [Compound 391], the figures for the IC50 against Human LDHA (setting [1]) and in the test with MiaPaCa2 cells were under 100 nM and under 1000 nM, respectively.
Take `CC#Cc1cccc(-c2nn(-c3ncc(C(=O)OCC)s3)c(CC3CC3)c2Cc2ccc(S(N)(=O)=O)c(F)c2)c1` [Compound 269]: the values for the IC50 at Human LDHA (setting [3]) and with MiaPaCa2 cells were 1000 to 57000 nM and under 1000 nM, respectively.
